Converted amounts (≈) assume the structure as drawn. The source made the active and inactive calls. No cut-off for these calls is given here.
Key:
Staphylococcus aureus [1] = test: Antimicrobial activity against methicillin-resistant Staphylococcus aureus assessed as reduction in bacterial growth in presence of phosphatidylethanolamine by checkerboard broth dilution method; format: functional, organism-based
Enterococcus faecalis [2] = test: Antibacterial activity against vancomycin-resistant Enterococcus faecalis ATCC51299 infected in female Kunming mouse model of abdominal infection assessed as decrease in bacterial load in peritoneal effusion at 4 mg/kg administered daily pre-infected for 12 hrs followed by compound administration for 3 days; format: functional, organism-based; details: time 3.0 day
Staphylococcus aureus [3] = test: Antibacterial activity against methicillin-resistant Staphylococcus aureus measured after 24 hrs by CLSI based broth microdilution method; format: functional
Enterococcus faecalis [4] = test: (§1) Antibacterial activity against vancomycin-resistant Enterococcus faecalis ATCC51299 infected in female Kunming mouse model of abdominal infection assessed as decrease in bacterial load in spleen at 4 mg/kg administered daily pre-infected for 12 hrs followed by compound administration for 3 days; format: functional, organism-based; details: time 3.0 day
Staphylococcus aureus [5] = test: Antibiofilm activity in methicillin-resistant Staphylococcus aureus assessed as increase in biofilm destruction at 1 times MIC incubated for 24 hrs by crystal violet staining based analysis relative to control; format: functional
Staphylococcus aureus [6] = test: Induction of morphological changes in methicillin-resistant Staphylococcus aureus assessed as appearance of clustered bacterial surface at 4 times MIC measured for 5 hrs by field emission scanning electron microscopy based analysis; format: functional, organism-based
Enterococcus faecalis [7] = test: Antibiofilm activity in vancomycin-resistant Enterococcus faecalis ATCC51299 assessed as increase in biofilm destruction at 1 times MIC incubated for 24 hrs by crystal violet staining based analysis relative to control; format: functional
Enterococcus faecalis [8] = test: as §1, with “inflammatory cell infiltration” for “bacterial load in spleen”; format: functional, organism-based; details: time 3.0 day
Enterococcus faecalis [9] = test: Antibacterial activity against vancomycin-resistant Enterococcus faecalis ATCC51299 infected in female Kunming mouse model of abdominal infection assessed as decrease in bacterial load in liver at 4 mg/kg administered daily pre-infected for 12 hrs followed by compound administration for 3 days; format: functional, organism-based; details: time 3.0 day
Enterococcus faecalis [10] = test: Antibacterial activity against vancomycin-resistant Enterococcus faecalis ATCC51299 at sub-MIC concentration measured after 24 hrs by CLSI based broth microdilution method; format: functional, organism-based
Enterococcus faecalis [11] = test: Induction of morphological changes in biofilm of vancomycin-resistant Enterococcus faecalis ATCC51299 assessed as decrease in biofilm density at 1 to 4 times MIC incubated for 24 hrs by DAPI staining based fluorescence microscopy analysis; format: functional, organism-based
Enterococcus faecalis [12] = test: Antibacterial activity against vancomycin-resistant Enterococcus faecalis ATCC51299 infected in female Kunming mouse model of abdominal infection assessed as decrease in bacterial load in kidney at 4 mg/kg administered daily pre-infected for 12 hrs followed by compound administration for 3 days; format: functional, organism-based; details: time 3.0 day
Staphylococcus aureus [13] = test: Induction of morphological changes in biofilm of methicillin-resistant Staphylococcus aureus assessed as decrease in biofilm density at 1 to 4 times MIC incubated for 24 hrs by DAPI staining based fluorescence microscopy analysis; format: functional, organism-based
Enterococcus faecalis [14] = test: Antibacterial activity against vancomycin-resistant Enterococcus faecalis ATCC51299 infected in female Kunming mouse model of abdominal infection assessed as decrease in granulocytes at 4 mg/kg administered daily pre-infected for 12 hrs followed by compound administration for 3 days; format: functional, organism-based; details: time 3.0 day
Enterococcus faecalis [15] = test: Antibacterial activity against vancomycin-resistant Enterococcus faecalis ATCC51299 infected in female Kunming mouse model of abdominal infection assessed as watery degeneration of hepatocytes at 4 mg/kg administered daily pre-infected for 12 hrs followed by compound administration for 3 days; format: functional, organism-based; details: time 3.0 day
Staphylococcus aureus [16] = test: Antibacterial activity against methicillin resistant Staphylococcus aureus infected in female Kunming mouse model of skin infection assessed as suppression of purulent secretion at 4 mg/kg administered daily pre-infected for 4 hrs followed by compound administration for 7 days; format: functional, organism-based; details: time 7.0 day
Staphylococcus aureus [17] = test: Antibacterial activity against methicillin resistant Staphylococcus aureus infected in female Kunming mouse model of skin infection assessed as reduction in inflammatory cell infiltration at 4 mg/kg administered daily pre-infected for 4 hrs followed by compound administration for 7 days; format: functional, organism-based; details: time 7.0 day
[18] = Toxicity in Kunming mouse assessed as morphological abnormalities at 4 mg/kg administered daily and measured after 7 days; format: organism-based; details: in vivo, 168 h, time 7 day
Staphylococcus aureus [19] = test: Antibacterial activity against methicillin resistant Staphylococcus aureus infected in female Kunming mouse model of skin infection assessed as reduction in bacterial load of wound at 4 mg/kg administered daily pre-infected for 4 hrs followed by compound administration for 7 days; format: functional, organism-based; details: time 7.0 day
Staphylococcus aureus [20] = test: Antibacterial activity against methicillin resistant Staphylococcus aureus infected in female Kunming mouse model of skin infection assessed as increase in neovascularization at 4 mg/kg administered daily pre-infected for 4 hrs followed by compound administration for 7 days; format: functional, organism-based; details: time 7.0 day
Staphylococcus aureus [21] = test: Antibacterial activity against methicillin resistant Staphylococcus aureus infected in female Kunming mouse model of skin infection assessed as reduction in wound size at 4 mg/kg administered daily pre-infected for 4 hrs followed by compound administration for 7 days; format: functional, organism-based; details: time 7.0 day

C=CCCCCCCCCCCCc1cc(O)cc(O)c1
Activity (Staphylococcus aureus [1]): inactive
Activity (Enterococcus faecalis [2]): Active
Activity (Staphylococcus aureus [3]): Active
MIC (Staphylococcus aureus [3]): 4 µg/mL (≈ 13.8 µM)
Activity (Enterococcus faecalis [4]): Active
Activity (Staphylococcus aureus [5]): >50%
Activity (Staphylococcus aureus [6]): Active
Activity (Enterococcus faecalis [7]): >50%
Activity (Enterococcus faecalis [8]): Active
Activity (Enterococcus faecalis [9]): Active
Activity (Enterococcus faecalis [10]): Active
Activity (Enterococcus faecalis [11]): Active
Activity (Enterococcus faecalis [12]): Active
Activity (Staphylococcus aureus [13]): Active
Activity (Enterococcus faecalis [14]): Active
Activity (Enterococcus faecalis [15]): Active

C=CCCCCCCCCCCCc1cc(O)cc(O)c1C(=O)O
Activity (Staphylococcus aureus [1]): inactive
Activity (Staphylococcus aureus [16]): Active
Activity (Staphylococcus aureus [3]): Active
MIC (Staphylococcus aureus [3]): 4 µg/mL (≈ 12 µM)
Activity (Staphylococcus aureus [17]): Active
Activity [18]: Non-Toxic
Activity (Staphylococcus aureus [19]): Active
Activity (Staphylococcus aureus [6]): Active
Activity (Staphylococcus aureus [20]): Active
Activity (Enterococcus faecalis [10]): Active
Activity (Enterococcus faecalis [11]): Active
Activity (Staphylococcus aureus [21]): Active
Activity (Staphylococcus aureus [13]): Active

Source: ChEMBL document CHEMBL6071135, “New resorcylic acid derivatives of Lysimachia tengyuehensis against MRSA and VRE by interfering with bacterial metabolic imbalance” (Eur J Med Chem, 2024)
